Measurements: publication PMC3760172 (Bioorganic & medicinal chemistry, 2013)

Target: rat nNOS (Rattus norvegicus, UniProt P29476)
Test: NOS inhibition assay
Assay type: biochemical
Details: compared with inhibitor 27

Cc1cc(N)nc(COc2cccc(NCCc3cccc(F)c3)c2)c1 [Compound 24]
decrease in potency (nNOS) relative to 27: 54 fold
